Measurements: PMC7849180 (Frontiers in Pharmacology, 2020)

Experiments:
test strains = assay: Ames test; conditions: 9.76–6100 μg/mL, with or without S9
Source text: Suzhou Zelgen Biopharmaceuticals Co., Ltd. Jaktinib Hydrochloride Tablets

[1] = Metabolic stability in liver microsomes; type: in vitro ADME, human
Protocol: The metabolic stability of ZG0128 (the dihydrochloride monohydrate of ZG0163) was evaluated using human, monkey, dog, rat, and mouse liver microsomes as the in vitro models. The percentages of residues for ZG0128 after incubating in human, monkey, dog, rat, and mouse liver microsomes for 60 minutes was 55.5%, 63.1%, 67.1%, 80.3%, and 79.0%, respectively. The CLint values of in vivo clearance were calculated to be 24.1, 21.6, 33.4, 10.7, 26.0 mL/min/kg, respectively. Thus its was speculated that ZG0128 was a medium clearance drug in humans, monkeys, and mice, a high clearance drug in dogs, and a low clearance drug in rats.
Using UPLC-UV/Q-TOF MS, the potential metabolites of ZG0128 in various liver microsomes (human, monkey, dog, rat and mouse liver microsomes) incubation systems were identified and the metabolic pathways of ZG0128 were speculated. The main metabolite of ZG0128 in above five types of liver microsomes were primary alcohol metabolite formed by morpholine ring-opening (M3). […]

ERK = assay: Phosphorylation of Elk-1 by ERK; type: biochemical
Source text: Suzhou Zelgen Biopharmaceuticals Co., Ltd. Jaktinib Hydrochloride Tablets Chemical Drug Class 1 New Drug has been completed. The ongoing toxicity tests include a long-term 39-week toxicity test in Beagle dogs by oral administration, a reproductive toxicity test in rats during the teratogenic sensitive period, and a reproductive toxicity test in rabbits during the teratogenic sensitive period.
Preclinical Pharmacodynamic Study
Study on the in vitro Pharmacodynamic Effects of ZG0163 at the […]
In this study, the effects of ZG0163 was similar to those of positive control compounds, ZG0164 and ZG0178.
Study on the in vitro Pharmacodynamic Effects of ZG0163 at the Cellular Level (Ba/F3-EpoR-JAK2V617F cells)
JAK2V617F cell line, the compound ZG0163 was able to induce apoptosis of pathogenic cells and eliminate abnormal cell proliferation by inhibiting the JAK-STAT signaling pathway, thus achieving treatment efficacy in myeloproliferative neoplasms. […]
cell line, manifested as significant inhibition of phosphorylation of JAK2 and its downstream signaling proteins ERK and STAT5. The effects of ZG0163 was similar to those of positive control compounds, ZG0164 and ZG0178.
EpoR-JAK2V617F, which was similar to those of positive control compounds, ZG0164

[2] = PK, single intragastric dose; type: in vivo, rats
Protocol: Suzhou Zelgen Biopharmaceuticals Co., Ltd. Jaktinib Hydrochloride Tablets Chemical Drug Class 1 New Drug […]
Gender Tma x Cma x AUC0-t AUC0-∞ MRT t1/2 […]
Pharmacokinetic Study of Single-Dose Intragastric Administration in […]
After a single intragastric administration of 15.3, 30.5 and 61 mg/kg of ZG0128 […]
drug in three dose groups were 5.74, 8.33 and 12.4 μg/mL, respectively. […]
ZG0245 was lower than the proportional increase in dose, the increase in the AUC0-t of ZG0163 was directly proportional to the increase in dose, and the increase in the AUC0-t of the metabolite ZG0245 was slightly higher than the proportional increase in dose. Based on the average value of AUC0-t, the absolute bioavailability of the drug in rats receiving a single intragastric administration of 15.3 mg/kg of […] was 40.0%. […]

In the case of `Cl.Cl.O.[2H]C1([2H])COCC([2H])([2H])N1c1ccc(Nc2nccc(-c3ccc(C(=O)NCC#N)cc3)n2)cc1` [ZG0128, Jaktinib Dihydrochloride Monohydrate], the Ames test result (test strains) is reported as “negative”, the “CLint of in vivo clearance” value [1] is reported as 24.1 mL/min/kg and the “percentage of residue after 60 minutes” value [1] is reported as 55.5%.

For Jaktinib, the “effect on phosphorylation of Elk-1 by ERK” value (ERK) was “significantly inhibited”, the AUC0-t ([2]; 15.3 mg/kg ZG0128, Female) was 19400 ± 7500 ng·h/mL and the “AUC0-∞” value ([2]; 15.3 mg/kg ZG0128, Female) was 19400 ± 7500 ng·h/mL. The Cmax ([2]; 15.3 mg/kg ZG0128, Female) was 4820 ± 1250 ng/mL, the MRT ([2]; 15.3 mg/kg ZG0128, Female) was 2.82 ± 0.60 h and the Tmax ([2]; 15.3 mg/kg ZG0128, Female) was 0.5 (0.5-1.0) h. For the same molecule, the t1/2 ([2]; 15.3 mg/kg ZG0128, Female) was 0.93 ± 0.26 h, the AUC0-t ([2]; 15.3 mg/kg ZG0128, Male) was 24500 ± 11300 ng·h/mL and the “AUC0-∞” value ([2]; 15.3 mg/kg ZG0128, Male) was 24600 ± 11300 ng·h/mL. For the same molecule, the Cmax ([2]; 15.3 mg/kg ZG0128, Male) was 6660 ± 2130 ng/mL, the MRT ([2]; 15.3 mg/kg ZG0128, Male) was 2.45 ± 0.29 h and the Tmax ([2]; 15.3 mg/kg ZG0128, Male) was 1.0 (0.5-2.0) h. For the same molecule, the t1/2 ([2]; 15.3 mg/kg ZG0128, Male) was 0.84 ± 0.20 h, the AUC0-t ([2]; 15.3 mg/kg ZG0128, Overall) was 21900 ng·h/mL and the “AUC0-∞” value ([2]; 15.3 mg/kg ZG0128, Overall) was 22000 ± 9000 ng·h/mL. For the same molecule, the Cmax ([2]; 15.3 mg/kg ZG0128, Overall) was 5740 ng/mL, the MRT ([2]; 15.3 mg/kg ZG0128, Overall) was 2.63 ± 0.47 h and the Tmax ([2]; 15.3 mg/kg ZG0128, Overall) was 0.75 (0.5-2.0) h. The t1/2 ([2]; 15.3 mg/kg ZG0128, Overall) was 0.89 ± 0.21 h, the absolute bioavailability ([2]; 15.3 mg/kg, by AUC0-t) was 40.0% and the AUC0-t ([2]; 30.5 mg/kg ZG0128, Female) was 39900 ± 13600 ng·h/mL. For the same molecule, the “AUC0-∞” value ([2]; 30.5 mg/kg ZG0128, Female) was 40200 ± 13200 ng·h/mL, the Cmax ([2]; 30.5 mg/kg ZG0128, Female) was 9680 ± 3400 ng/mL and the MRT ([2]; 30.5 mg/kg ZG0128, Female) was 3.46 ± 0.75 h. The Tmax ([2]; 30.5 mg/kg ZG0128, Female) was 2.0 (2.0) h, the t1/2 ([2]; 30.5 mg/kg ZG0128, Female) was 2.07 ± 2.24 h and the AUC0-t ([2]; 30.5 mg/kg ZG0128, Male) was 41600 ± 19700 ng·h/mL. For the same molecule, the “AUC0-∞” value ([2]; 30.5 mg/kg ZG0128, Male) was 43200 ± 21900 ng·h/mL, the Cmax ([2]; 30.5 mg/kg ZG0128, Male) was 6970 ± 1150 ng/mL and the MRT ([2]; 30.5 mg/kg ZG0128, Male) was 3.95 ± 1.68 h. For the same molecule, the Tmax ([2]; 30.5 mg/kg ZG0128, Male) was 1.0 (1.0-2.0) h, the t1/2 ([2]; 30.5 mg/kg ZG0128, Male) was 1.58 ± 0.75 h and the AUC0-t ([2]; 30.5 mg/kg ZG0128, Overall) was 40800 ng·h/mL. For the same molecule, the “AUC0-∞” value ([2]; 30.5 mg/kg ZG0128, Overall) was 41700 ± 16200 ng·h/mL, the Cmax ([2]; 30.5 mg/kg ZG0128, Overall) was 8330 ng/mL and the MRT ([2]; 30.5 mg/kg ZG0128, Overall) was 3.70 ± 1.19 h. For the same molecule, the Tmax ([2]; 30.5 mg/kg ZG0128, Overall) was 2.0 (1.0-2.0) h, the t1/2 ([2]; 30.5 mg/kg ZG0128, Overall) was 1.82 ± 1.52 h and the AUC0-t ([2]; 61 mg/kg ZG0128, Female) was 82700 ± 31000 ng·h/mL. The “AUC0-∞” value ([2]; 61 mg/kg ZG0128, Female) was 87300 ± 31000 ng·h/mL, the Cmax ([2]; 61 mg/kg ZG0128, Female) was 12100 ± 2600 ng/mL and the MRT ([2]; 61 mg/kg ZG0128, Female) was 4.87 ± 1.22 h. For the same molecule, the Tmax ([2]; 61 mg/kg ZG0128, Female) was 4.0 (1.0-6.0) h, the t1/2 ([2]; 61 mg/kg ZG0128, Female) was 2.14 ± 0.31 h and the AUC0-t ([2]; 61 mg/kg ZG0128, Male) was 124000 ± 58000 ng·h/mL. The “AUC0-∞” value ([2]; 61 mg/kg ZG0128, Male) was 124000 ± 58000 ng·h/mL, the Cmax ([2]; 61 mg/kg ZG0128, Male) was 12800 ± 1700 ng/mL and the MRT ([2]; 61 mg/kg ZG0128, Male) was 6.20 ± 2.52 h. The Tmax ([2]; 61 mg/kg ZG0128, Male) was 2.0 (2.0-8.0) h, the t1/2 ([2]; 61 mg/kg ZG0128, Male) was 1.56 ± 0.59 h and the AUC0-t ([2]; 61 mg/kg ZG0128, Overall) was 103000 ng·h/mL. The “AUC0-∞” value ([2]; 61 mg/kg ZG0128, Overall) was 106000 ± 46000 ng·h/mL, the Cmax ([2]; 61 mg/kg ZG0128, Overall) was 12400 ng/mL and the MRT ([2]; 61 mg/kg ZG0128, Overall) was 5.54 ± 1.92 h. For the same molecule, the Tmax ([2]; 61 mg/kg ZG0128, Overall) was 3.0 (1.0-8.0) h, the t1/2 ([2]; 61 mg/kg ZG0128, Overall) was 1.85 ± 0.53 h and the “Tmax, range over doses” value ([2]; 15.3, 30.5 and 61 mg/kg ZG0128) was 0.75 to 3.0 h. The “plasma elimination half-life t1/2, range over doses” value ([2]; 15.3, 30.5 and 61 mg/kg ZG0128) was 0.89 to 1.85 h.
